The results in this text go back to the Kinase Knowledgebase extract (Sharma et al. 2016).

In this assay the target is EGFR (UniProt P00533).
EGFR, sequence (P00533 whole entry, looked up): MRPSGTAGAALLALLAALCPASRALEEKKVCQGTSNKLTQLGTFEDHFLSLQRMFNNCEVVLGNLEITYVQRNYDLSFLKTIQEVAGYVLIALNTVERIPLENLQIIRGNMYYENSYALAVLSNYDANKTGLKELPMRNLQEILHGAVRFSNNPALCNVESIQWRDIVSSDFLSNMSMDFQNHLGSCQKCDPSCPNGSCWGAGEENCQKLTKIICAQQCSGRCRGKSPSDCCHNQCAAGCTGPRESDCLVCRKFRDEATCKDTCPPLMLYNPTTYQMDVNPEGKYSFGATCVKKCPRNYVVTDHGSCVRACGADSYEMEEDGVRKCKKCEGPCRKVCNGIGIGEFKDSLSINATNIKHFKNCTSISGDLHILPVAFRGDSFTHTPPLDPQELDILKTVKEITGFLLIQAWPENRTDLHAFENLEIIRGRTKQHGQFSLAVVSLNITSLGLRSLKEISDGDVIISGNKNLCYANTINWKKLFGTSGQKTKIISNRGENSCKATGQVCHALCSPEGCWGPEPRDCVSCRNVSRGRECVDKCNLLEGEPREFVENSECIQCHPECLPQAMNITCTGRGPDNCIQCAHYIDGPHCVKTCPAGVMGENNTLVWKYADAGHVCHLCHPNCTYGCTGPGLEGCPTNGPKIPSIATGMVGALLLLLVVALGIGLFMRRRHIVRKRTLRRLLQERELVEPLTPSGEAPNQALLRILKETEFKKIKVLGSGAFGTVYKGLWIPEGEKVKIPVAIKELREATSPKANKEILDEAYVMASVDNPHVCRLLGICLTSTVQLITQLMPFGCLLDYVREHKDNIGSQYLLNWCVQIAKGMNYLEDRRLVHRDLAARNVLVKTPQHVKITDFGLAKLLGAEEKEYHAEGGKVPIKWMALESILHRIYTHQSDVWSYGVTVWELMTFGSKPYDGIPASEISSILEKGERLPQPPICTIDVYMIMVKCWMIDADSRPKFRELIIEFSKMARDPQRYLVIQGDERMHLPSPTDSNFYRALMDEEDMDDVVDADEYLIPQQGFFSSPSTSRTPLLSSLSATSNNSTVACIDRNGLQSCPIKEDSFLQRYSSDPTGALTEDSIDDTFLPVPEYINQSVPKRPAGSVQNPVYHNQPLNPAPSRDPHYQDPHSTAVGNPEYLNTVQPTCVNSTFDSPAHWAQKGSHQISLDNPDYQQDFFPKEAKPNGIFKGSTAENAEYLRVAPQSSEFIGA
Regarding `NCCc1cc(O)c(O)c(SC[C@H](NC(=O)CC[C@H](N)C(=O)O)C(=O)NCC(=O)O)c1`, the inhibition worked out at 1.

As for `N[C@H](Cc1cc(O)c(O)c(SC[C@H](N)C(=O)O)c1)C(=O)O`, the inhibition turned out to be 0.

In the case of `N[C@H](Cc1cc(O)c(O)c(SC[C@H](NC(=O)CC[C@H](N)C(=O)O)C(=O)NCC(=O)O)c1)C(=O)O`, the inhibition was found to be 0.

Regarding `NCCc1cc(SC[C@H](NC(=O)CC[C@H](N)C(=O)O)C(=O)NCC(=O)O)c(O)c(O)c1SC[C@@H](NC(=O)CC[C@@H](N)C(=O)O)C(=O)NCC(=O)O`, the inhibition amounted to 7.6.

Consider `N[C@@H](CCC(=O)N[C@@H](CSc1cc(C[C@H](N)C(=O)O)cc(O)c1O)C(=O)NCC(=O)O)C(=O)O`, for which the inhibition stood at 4.4.

`N[C@@H](CSc1cc(C[C@H](N)C(=O)O)cc(O)c1O)C(=O)O` gave an inhibition of 2.9.

For `NCCC(=O)N[C@@H](Cc1cc(O)c(O)c(SC[C@H](NC(=O)CC[C@H](N)C(=O)O)C(=O)NCC(=O)O)c1)C(=O)O`, the inhibition stood at 2.2.

With `NCCC(=O)NCCc1cc(O)c(O)c(SC[C@H](NC(=O)CC[C@H](N)C(=O)O)C(=O)NCC(=O)O)c1`, the inhibition was found to be 4.9.

`C[C@@](Cc1cc(O)c(O)c(SC[C@H](NC(=O)CC[C@H](N)C(=O)O)C(=O)NCC(=O)O)c1)(NC(=O)CCN)C(=O)O` had an inhibition of 5.2.

In turn, `NCCC(=O)N[C@H](Cc1cc(O)c(O)c(SC[C@H](NC(=O)CC[C@H](N)C(=O)O)C(=O)NCC(=O)O)c1)C(=O)O` yielded an inhibition of 8.2.
